In patent US6743753B2, “Herbicidal compositions” (priority 1998, dated 2004):

What was measured:
Assay type in all cases: in vivo
Settings in all cases: 28 DAT
[1] = test system: Cyperus difformis (CYPDI); test: Post-emergence treatment of CYPDI, visual assessment of weed control
Excerpt: (§1) Seed of various weed species were sown and grown up to a 2-4 leaves stage. The said weeds are Echinochloa crus-galli (hereafter ECGCH), Leptochloa chinensis (hereafter LEFCH), Monochoria vaginalis (hereafter MOOVA) and Cyperus difformis (hereafter CYPDI).
(§2) Mixtures of pyribenzoxim and a partner herbicide were applied post emergence in a water diluted form using a laboratory sprayer. A visual assessment was made 28 days after treatment (DAT).
(§3) In the tables that follow ‘dose’ represents the dose rate in grammes per hectare of the active ingredient used; the figures for the weed control are percentage reductions in growth when compared with untreated controls; and CpdA represents pyribenzoxim.

[2] = test system: Leptochloa chinensis (LEFCH); test: Post-emergence treatment of LEFCH, visual assessment of weed control
Excerpt: as §1, §2, §3

[3] = test system: Monochoria vaginalis (MOOVA); test: Post-emergence treatment of MOOVA, visual assessment of weed control
Excerpt: as §1, §2, §3

[4] = test system: Echinochloa crus-galli (ECGCH); test: Post-emergence treatment of ECGCH, visual assessment of weed control
Excerpt: as §1, §2, §3

CC(Oc1ccc(Oc2nc3ccc(Cl)cc3o2)cc1)C(=O)O (racemic) [fenoxaprop, [(±)-2-[4-(6-chloro-1,3-benzoxazol-2-yloxy)phenoxy]propionic acid]
weed control, percentage reduction in growth vs untreated controls ([1]; Table 10, fenoxaprop 30 g/ha alone): 0%
weed control, percentage reduction in growth vs untreated controls ([1]; Table 10, fenoxaprop 60 g/ha alone): 0%
weed control, percentage reduction in growth vs untreated controls ([2]; Table 2, fenoxaprop 15 g/ha alone): 0%
weed control, percentage reduction in growth vs untreated controls ([2]; Table 2, fenoxaprop 30 g/ha alone): 0%
weed control, percentage reduction in growth vs untreated controls ([2]; Table 2, fenoxaprop 60 g/ha alone): 0%
weed control, percentage reduction in growth vs untreated controls ([3]; Table 7, MOOVA (2 leaf), fenoxaprop 15 g/ha alone): 0%
weed control, percentage reduction in growth vs untreated controls ([3]; Table 7, MOOVA (2 leaf), fenoxaprop 30 g/ha alone): 0%
weed control, percentage reduction in growth vs untreated controls ([3]; Table 7, MOOVA (2 leaf), fenoxaprop 60 g/ha alone): 30%
weed control, percentage reduction in growth vs untreated controls ([3]; Table 7, MOOVA (2 leaf), fenoxaprop 120 g/ha alone): 70%

Cc1ccc(C(=O)COc2c(C(=O)c3ccc(Cl)c(C)c3Cl)c(C)nn2C)cc1 [benzofenap, 2-[4-(2,4-dichloro-m-toluoyl)-1,3-dimethylpyrazol-5-yloxy]-4-′methylacetophenone]
weed control, percentage reduction in growth vs untreated controls ([2]; Table 6, LEFCH (2 leaf), benzofenap 600 g/ha alone): 10%
weed control, percentage reduction in growth vs untreated controls ([2]; Table 6, LEFCH (2 leaf), benzofenap 1200 g/ha alone): 20%
weed control, percentage reduction in growth vs untreated controls ([3]; Table 9, MOOVA (2 leaf), benzofenap 150 g/ha alone): 0%
weed control, percentage reduction in growth vs untreated controls ([3]; Table 9, MOOVA (2 leaf), benzofenap 300 g/ha alone): 0%

COc1cc(OC)nc(NC(=O)NS(=O)(=O)Cc2ccccc2C(=O)O)n1 [bensulfuron, α-(4,6-dimethoxypyrimidin-2-ylcarbamoylsulfamoyl)-o-toluic acid]
weed control, percentage reduction in growth vs untreated controls ([2]; Table 4, LEFCH (2 leaf), bensulfuron 25 g/ha alone): 0%
weed control, percentage reduction in growth vs untreated controls ([2]; Table 4, LEFCH (2 leaf), bensulfuron 50 g/ha alone): 0%
weed control, percentage reduction in growth vs untreated controls ([4]; bensulfuron 6.5 g/ha alone): 30%
weed control, percentage reduction in growth vs untreated controls ([4]; bensulfuron 13 g/ha alone): 50%
weed control, percentage reduction in growth vs untreated controls ([4]; bensulfuron 25 g/ha alone): 70%

COc1cc(OC)nc(Oc2cccc(Oc3nc(OC)cc(OC)n3)c2C(=O)ON=C(c2ccccc2)c2ccccc2)n1 [CpdA, benzophenone O-{2,6-bis[(4,6-dimethoxypyrimidyl)oxy]benzoyl}oxime]
weed control, percentage reduction in growth vs untreated controls ([1]; Table 10, CpdA 15 g/ha alone): 60%
weed control, percentage reduction in growth vs untreated controls ([1]; Table 11, CpdA 7.5 g/ha alone): 0%
weed control, percentage reduction in growth vs untreated controls ([2]; Table 2, CpdA 15 g/ha alone): 0%
weed control, percentage reduction in growth vs untreated controls ([2]; Table 2, CpdA 30 g/ha alone): 30%
weed control, percentage reduction in growth vs untreated controls ([2]; Table 2, CpdA 60 g/ha alone): 30%
weed control, percentage reduction in growth vs untreated controls ([2]; Table 3, CpdA 15 g/ha alone): 0%
weed control, percentage reduction in growth vs untreated controls ([2]; Table 3, CpdA 30 g/ha alone): 30%
weed control, percentage reduction in growth vs untreated controls ([2]; Table 3, CpdA 60 g/ha alone): 30%
weed control, percentage reduction in growth vs untreated controls ([2]; Table 4, LEFCH (2 leaf), CpdA 15 g/ha alone): 50%
weed control, percentage reduction in growth vs untreated controls ([2]; Table 5, LEFCH (2 leaf), CpdA 7.5 g/ha alone): 30%
weed control, percentage reduction in growth vs untreated controls ([2]; Table 5, LEFCH (2 leaf), CpdA 15 g/ha alone): 50%
weed control, percentage reduction in growth vs untreated controls ([2]; Table 6, LEFCH (2 leaf), CpdA 7.5 g/ha alone): 30%
weed control, percentage reduction in growth vs untreated controls ([2]; Table 6, LEFCH (2 leaf), CpdA 15 g/ha alone): 50%
weed control, percentage reduction in growth vs untreated controls ([3]; Table 7, MOOVA (2 leaf), CpdA 15 g/ha alone): 0%
weed control, percentage reduction in growth vs untreated controls ([3]; Table 7, MOOVA (2 leaf), CpdA 30 g/ha alone): 70%
weed control, percentage reduction in growth vs untreated controls ([3]; Table 8, MOOVA (2 leaf), CpdA 15 g/ha alone): 100%
weed control, percentage reduction in growth vs untreated controls ([3]; Table 8, MOOVA (2 leaf), CpdA 30 g/ha alone): 100%
weed control, percentage reduction in growth vs untreated controls ([3]; Table 9, MOOVA (2 leaf), CpdA 7.5 g/ha alone): 100%
weed control, percentage reduction in growth vs untreated controls ([4]; CpdA 7.5 g/ha alone): 20%

CC(C)N1C(=O)c2ccccc2NS1(=O)=O [bentazone, 3-isopropyl-1H-2,1,3-benzothiadiazin-4(3H)-one 2,2-dioxide]
weed control, percentage reduction in growth vs untreated controls ([1]; Table 11, bentazone 375 g/ha alone): 80%
weed control, percentage reduction in growth vs untreated controls ([1]; Table 11, bentazone 750 g/ha alone): 80%
weed control, percentage reduction in growth vs untreated controls ([2]; Table 3, bentazone 375 g/ha alone): 0%
weed control, percentage reduction in growth vs untreated controls ([2]; Table 3, bentazone 750 g/ha alone): 20%
weed control, percentage reduction in growth vs untreated controls ([2]; Table 3, bentazone 1500 g/ha alone): 20%
